Series [1] has as its system human NET cell lines. Particulars: capecitabine and TMZ in human NET cell lines; cited from earlier work.
In series [2] the test system is five glioma cell lines (U-87MG, LN-18, LN-229, 8-MG-BA, Tu-2449). It counts as cell-based, human and mouse. As for the experimental part: (§1) Two different TMZ schedules were tested. To test the effect of preincubation with TMZ, cells were seeded at a density of 1×10^5 cells per well on six-well plates. After 24 h, different concentrations of TMZ were added to the cells. The next day, cells were infected with RRV-GFP vector at a multiplicity of infection of 0.1. To test the effect of concomitant TMZ, cells were seeded at a density of 1×10^5 cells per well on six-well plates. After 48 h, cells were infected with RRV-GFP vector at a multiplicity of infection of 0.1 in the presence of different concentrations of TMZ. The following day, cells were transferred to T25 flasks keeping the indicated TMZ concentration. Cells were analyzed three times a week by enhanced green fluorescent protein fluorescence-activated cell sorting analysis for virus spread, maintaining the indicated TMZ concentration during the entire experiment.
(§2) To test any possible effect of TMZ on the spread of Toca 511, the same panel of glioma cells was treated with different concentrations of TMZ depending on the TMZ sensitivity of the cells determined in the clonogenic assay in FIG. 1b. In addition, vector with the same backbone as Toca 511 but encoding a GFP transgene (RRV-GFP) was used to assess vector spread by fluorescence-activated cell sorting analysis. Two TMZ treatment schedules were tested. […]

In series [3] the test system is LN-18. Put plainly: In vitro RRV-GFP spread (FACS). It is filed as cell-based, human. Particulars: TMZ up to 20 mgml^−1 added 24 h before RRV-GFP, by day 19. As for the experimental part: as §1
(§3) To test any possible effect of TMZ on the spread of Toca 511, the same panel of glioma cells was treated with different concentrations of TMZ depending on the TMZ sensitivity of the cells determined in the clonogenic assay in FIG. 1b. In addition, vector with the same backbone as Toca 511 but encoding a GFP transgene (RRV-GFP) was used to assess vector spread by fluorescence-activated cell sorting analysis. Two TMZ treatment schedules were tested. The first schedule tested treatment with varying concentrations of TMZ before and during the time of vector infection, and the second schedule tested treatment with varying concentrations of TMZ at the same time as the addition of vector. In the first schedule, glioma cells were incubated with different concentrations of TMZ 24 h before the addition of RRVGFP at a multiplicity of infection of 0.1. […] There was an initial lag or decrease in GFP positivity at earlier time points (FIG. 2a). […] In the second schedule, when TMZ and RRV-GFP were added to the glioma cells concomitantly, the same trend was observed; after an initial lag, cells reached nearly 100% GFP positivity in the presence of TMZ (FIG. 2b). The observed infectivity lag was likely due to induction of apoptosis in a certain percentage of cells with TMZ treatment. Surviving cells were still susceptible to infection with RRV-GFP and able to produce more RRV-GFP virus for further infection and spread within the culture dish. […] Rather the data is consistent with the conclusion that slowing of tumor cell replication with the anticancer drug TMZ, slows the replication of the RRV because of the inhibition of cancer cell replication and the requirement for cell replication for productive infection with RRV.

For series [4], the system named is U-87MG. Put plainly: In vitro RRV-GFP spread (FACS). Particulars: 10 mgml^−1 of TMZ. It counts as cell-based, human. Here is the method:
as §1, §3

The test system of series [5] is LN-229. The series can be described thus: In vitro RRV-GFP spread (FACS). It counts as cell-based, human. Particulars: 1 and 2 mgml^−1 TMZ added 24 h before RRV-GFP, by day 16. As for the experimental part:
as §1, §3

In series [6] the test system is 8-MG-BA. Put plainly: In vitro RRV-GFP spread (FACS). It counts as cell-based, human. Particulars: 1 and 2 mgml^−1 TMZ added 24 h before RRV-GFP, by day 16. Here is the method:
as §1, §3

The nature of series [7]: Dose finding study 5-FC and TMZ, hematological examination, healthy athymic mice. It is filed as in vivo, mouse. As for the experimental part:
To test the effect of the combination therapy of TMZ and Toca 511+5-FC treatment in a TMZ-sensitive cell line in vivo, the U-87MG cell line was used in an orthotopic xenograft glioma model in immunocompromised mice. A similar TMZ dose finding study as for the C3B6F1-immunocompetent mice was conducted in healthy athymic mice to evaluate the clinical effects and possible hematological changes during concomitant administration of 5-FC and TMZ. Two concentrations of TMZ (25 and 60 mgkg^−1) in combination with a fixed dose of 5-FC (500 mgkg^−1 per dose) were administered intraperitoneal SID for 4 consecutive days starting on days 1, 15, 29 and 43. Mice were terminated on day 53 for hematological examination.

Series [8] in a line: Dose finding study 5-FC and TMZ, hematological examination, healthy B6C3/F1 mice. It counts as in vivo, mouse. As for the experimental part: A dose finding study was conducted in healthy B6C3/F1 hybrid mice to evaluate the clinical effects and possible hematological changes during concomitant administration of 5-FC and TMZ. Both drugs are known to cause hematological toxicity in some circumstances and therefore it is important to examine any potential drug interaction with respect to this potentially toxic side effect. Three concentrations of TMZ (25, 60 and 125 mgkg^−1) in combination with a fixed dose of 5-FC (500 mgkg^−1 per dose) were administered intraperitoneal SID for 4 consecutive days starting on days 1, 8, 22 and 36. Mice were terminated on day 51 for hematological examination.

The subject of series [9] is Tu-2449. Put plainly: In vitro RRV-GFP spread (FACS). It counts as cell-based, mouse. Particulars: TMZ up to 20 mgml^−1 added 24 h before RRV-GFP, by day 19. Here is the method: as §1, §2
The conditions of series [10]: pharmacokinetic studies; cited from earlier work.
In series [11] the test system is U-87MG cells (naive and Toca 511-transduced). The series can be described thus: In vitro 5-FC sensitivity assay (XTT viability). It is filed as cell-based, human. Particulars: day 6. As for the experimental part: (§4) Tu-2449 and U-87MG cells were infected with ˜1×10^4 transducing units (TU) ml^−1 of Toca 511 in the presence of polybrene (8 mgml^−1). Cells were passaged 2-3 times a week for 17 days. […] Cells were seeded on day 0 at a concentration of 1×10^3 cells per well of a 96-well plate in […] of culture medium (Dulbecco's modified Eagle's mediump10% fetal calf serum+gentamicin (17 mg per 100 ml)). On day 1, […] of culture medium containing 5-FC (range 0-1000 mgml^−1), TMZ (range 0-100 mgml^−1) or both drugs (5-FC (range 0-1.6 mgml^−1) and TMZ (2 mgml^−1)) was added to the cells. Viability was measured on day 6 using Cell Proliferation Kit II (XTT) (Roche, Indianapolis, Ind., USA) as recommended by the manufacturer.
(§5) Two glioma lines U-87MG (TMZ-sensitive) and Tu-2449 (TMZ-resistant) were chosen to examine the compatibility of TMZ and Toca 511p5-FC treatment in previously infected cells. These two cell lines were cultured as either non-transduced control or 100% Toca 511-transduced cells. Sensitivity to 5-FC was examined by measuring cell viability after culture in increasing amounts of 5-FC. […] In addition, cell viability was examined in the nontransduced and transduced cell lines treated with increasing amounts of TMZ.

Series [12] relates to Tu-2449 cells (naive and Toca 511-transduced). The series can be described thus: In vitro 5-FC sensitivity assay (XTT viability). It is filed as cell-based, mouse. Particulars: day 6. As for the experimental part:
as §4, §5

The mark [13] stands for this setting: highest TMZ dose (125 mgm^−2) coadministered with 5-FC.

Structures are written as SMILES.

As to `CCCCCOC(=O)Nc1nc(=O)n([C@@H]2O[C@H](C)[C@@H](O)[C@H]2O)cc1F` [capecitabine], in series [1], the “induction of apoptosis, combination effect” value is recorded as “synergistic”.
Regarding `Cn1nnc2c(C(N)=O)ncn2c1=O` [TMZ, Temozolomide], the GFP positivity in series [2] is about 100%; in series [3] it was about 100%; in series [5], 100%; in series [6] it was 100%; in series [9] it was about 100%. In series [4], this molecule registered a cells killed of about 90%. The hematological changes result is reported as “substantially severe hematological changes (leukocytopenia, thrombocytopenia)” in series [7] (TMZ 60 mgkg^−1 (human equivalent of 200 mgm^−2) in combination with 5-FC) and “without significant hematological changes” in series [8] (TMZ 25 mgkg^−1 per day (human equivalent of 75 mgm^−2) with 5-FC 500 mgkg^−1 per dose). For the same molecule, the “increase in ALT activity” value in series [7] (TMZ 60 mgkg^−1 in combination with 5-FC) is on record as “five fold increase”. Also, the “changes in hematological parameters” value in series [7] (lower TMZ dose of 25 mgkg^−1 in combination with 5-FC) is recorded as “mild changes”. Besides, in series [8] (setting [13]), the leukocytes result is “almost complete loss”. Further, in [8] (setting [13]), the platelet counts result is “significant reduction”.
Regarding `O=c1[nH]cc(F)c(=O)[nH]1` [5-FU, 5-fluorouracil], the “blood brain barrier passage” value in series [10] is listed as “crosses the blood brain barrier”.
In the case of `Nc1nc(=O)[nH]cc1F` [5-FC, 5-fluorocytosine], the “sensitivity to 5-FC (cell viability)” value in [11] (Toca 511-transduced U-87MG) is reported as “sensitive to 5-FC in a dose-dependent manner”; in series [11] (naive (non-transduced) U-87MG, up to 100 mgml^−1 5-FC) it was “highly resistant”; in [12] (Toca 511-transduced Tu-2449), “sensitive to 5-FC in a dose-dependent manner”; in series [12] (naive (non-transduced) Tu-2449, up to 100 mgml^−1 5-FC), “highly resistant”.

Values taken from patent publication US9642921B2, “Cancer combination therapy and recombinant vectors” (Tocagen Inc., priority 2012, dated 2017).
